The target in one assay is T1, human recombinant COX‐2 (Homo sapiens, UniProt P35354).
T1 construct: purchased Sigma Chemical Co. (St. Louis, MO, USA)
T1 sequence (P35354 18-604): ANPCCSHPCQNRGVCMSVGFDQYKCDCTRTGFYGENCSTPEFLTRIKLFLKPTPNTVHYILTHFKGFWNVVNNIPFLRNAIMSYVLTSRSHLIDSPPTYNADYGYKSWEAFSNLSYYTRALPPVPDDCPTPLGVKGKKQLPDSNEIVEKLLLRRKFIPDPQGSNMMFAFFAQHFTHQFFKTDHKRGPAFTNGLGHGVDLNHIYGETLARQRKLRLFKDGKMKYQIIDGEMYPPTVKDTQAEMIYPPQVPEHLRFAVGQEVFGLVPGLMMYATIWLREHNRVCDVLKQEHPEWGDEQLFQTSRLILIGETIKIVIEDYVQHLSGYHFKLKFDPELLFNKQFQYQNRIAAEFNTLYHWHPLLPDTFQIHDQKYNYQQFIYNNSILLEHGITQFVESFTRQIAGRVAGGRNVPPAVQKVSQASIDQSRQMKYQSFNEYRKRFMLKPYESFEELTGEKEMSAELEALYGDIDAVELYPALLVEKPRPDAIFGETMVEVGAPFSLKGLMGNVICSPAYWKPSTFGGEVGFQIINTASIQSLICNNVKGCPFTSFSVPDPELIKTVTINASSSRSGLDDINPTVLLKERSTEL
Nature of the assay: In vitro fluorometric COX‐2 inhibitory assay and selectivity index. Format: biochemical. Conditions: for IC50: human recombinant enzyme.

The target in a further assay is T2, human recombinant COX‐1 (Homo sapiens, UniProt P23219).
T2 construct: purchased Sigma Chemical Co. (St. Louis, MO, USA)
Nature of the assay: In vitro fluorometric COX‐1 inhibitory assay. The settings on record: mean ± SEM; for IC50: human recombinant enzyme. It is filed as biochemical. On the procedure:
The COX‐1/2 inhibitory potential of bis‐chalcones was assessed with an in vitro fluorometric assay, based on the protocol outlined by Sigma‐Aldrich in their COX‐2 Inhibitor Screening Kit.
To conduct the assay, human recombinant COX‐1 or COX‐2 (2.5 ng/µL) was combined with diluted hemin (1 µM), COX cofactor, and ampliflu red (100 µM) in assay buffer (trizma hydrochloride pH = 8.0 and EDTA 0.1 µM).

The next assay concerns COX‐2. Details: method as in PMID 824724. Conditions: measured in rabbit cell; cited from earlier work.
The mark [1] stands for this setting: at 100 μM, highest tested concentration, mean ± SEM.
Where [2] appears, read: at 100 μM, highest tested concentration.
Where [3] appears, read: SI = % inhibition COX‐2 / % inhibition COX‐1 at 100 µM.

T2 sequence (P23219 24-599): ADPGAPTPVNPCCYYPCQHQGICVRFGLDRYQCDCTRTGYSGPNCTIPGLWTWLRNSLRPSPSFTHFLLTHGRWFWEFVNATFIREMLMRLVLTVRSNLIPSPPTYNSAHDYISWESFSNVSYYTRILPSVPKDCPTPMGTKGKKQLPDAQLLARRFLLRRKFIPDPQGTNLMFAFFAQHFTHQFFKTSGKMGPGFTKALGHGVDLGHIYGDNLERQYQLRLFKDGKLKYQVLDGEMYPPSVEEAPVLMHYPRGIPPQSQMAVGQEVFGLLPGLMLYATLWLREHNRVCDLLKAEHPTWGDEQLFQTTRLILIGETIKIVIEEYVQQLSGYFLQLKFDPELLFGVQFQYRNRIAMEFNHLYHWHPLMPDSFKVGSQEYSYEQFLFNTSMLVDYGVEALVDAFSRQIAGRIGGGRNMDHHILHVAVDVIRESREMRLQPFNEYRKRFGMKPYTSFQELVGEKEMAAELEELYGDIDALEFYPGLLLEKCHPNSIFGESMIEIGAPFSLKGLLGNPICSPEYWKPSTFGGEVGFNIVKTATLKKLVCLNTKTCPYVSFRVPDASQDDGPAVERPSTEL

As usually defined, the inhibition is the share of the control response that was lost under treatment. Turning to `COCOc1ccc(/C=C/C(=O)c2c(OCOC)cc(OCOC)c(C(=O)/C=C/c3ccc(OCOC)cc3)c2OCOC)cc1` [Compound 25, (2E,2′E)−1,1′‐[2,4,6‐Tris(methoxymethoxy)−1,3‐phenylene]bis{3‐[4‐(methoxymethoxy)phenyl]prop‐2‐en‐1‐one}], the inhibition at 100 µM on human recombinant COX‐2 (setting [1]) and on human recombinant COX‐1 (setting [2]) was less than 30% throughout.
What is called IC50 is the concentration that inhibits the measured activity by half. On to `COc1cc(/C=C/C(=O)c2c(OC)cc(OC)c(C(=O)/C=C/c3ccc(O)c(OC)c3)c2OC)ccc1O` [Compound 13, (2E,2′E)−1,1′‐(2,4,6‐Trimethoxy‐1,3‐phenylene)bis[3‐(4‐hydroxy‐3‐methoxyphenyl)prop‐2‐en‐1‐one]], for which, on human recombinant COX‐2 (SI = IC50 COX‐1 / IC50 COX‐2), the “Selectivity index (SI)” value turned out to be 4.4. The results for the IC50 at human recombinant COX‐2 (mean ± SEM) and at human recombinant COX‐1 were 5.5 ± 0.7 µM and 24 ± 3 µM, respectively.
With `COCOc1cc(OCOC)c(C(=O)/C=C/c2ccc(OC)cc2)c(OCOC)c1C(=O)/C=C/c1ccc(OC)cc1` [Compound 20, (2E,2′E)−1,1′‐[2,4,6‐Tris(methoxymethoxy)−1,3‐phenylene]bis[3‐(4‐methoxyphenyl)prop‐2‐en‐1‐one]], the inhibition at 100 µM at human recombinant COX‐2 (setting [1]) and on human recombinant COX‐1 (setting [2]) was less than 30% throughout.
On to `COc1cc(/C=C/C(=O)c2c(O)cc(O)c(C(=O)/C=C/c3ccc(O)c(OC)c3)c2O)ccc1O` [Compound 28, (2E,2′E)−1,1′‐(2,4,6‐Trihydroxy‐1,3‐phenylene)bis[3‐(4‐hydroxy‐3‐methoxyphenyl)prop‐2‐en‐1‐one]], for which the “Selectivity index (SI)” value at human recombinant COX‐2 (SI = IC50 COX‐1 / IC50 COX‐2) stood at 2.6. Also, the IC50 turned out to be 14.6 ± 0.5 µM at human recombinant COX‐2 (mean ± SEM) and 37 ± 4 µM at human recombinant COX‐1.
Turning to `COCOc1ccc(/C=C/C(=O)c2c(OCOC)cc(OCOC)c(C(=O)/C=C/c3ccc(OCOC)c(OC)c3)c2OCOC)cc1OC` [Compound 21, (2E,2′E)−1,1′‐[2,4,6‐Tris(methoxymethoxy)−1,3‐phenylene]bis{3‐[3‐methoxy‐4‐(methoxymethoxy)phenyl]prop‐2‐en‐1‐one}], the inhibition at 100 µM on human recombinant COX‐2 (setting [1]) and on human recombinant COX‐1 (setting [2]) was less than 30% in each case.
Regarding `O=C(/C=C/c1ccc(Br)cc1)c1c(O)cc(O)c(C(=O)/C=C/c2ccc(Br)cc2)c1O` [Compound 29, (2E,2′E)−1,1′‐(2,4,6‐Trihydroxy‐1,3‐phenylene)bis[3‐(4‐bromophenyl)prop‐2‐en‐1‐one]], the “Selectivity index (SI)” value on human recombinant COX‐2 (setting [3]) worked out at 1.1. The inhibition at 100 µM on human recombinant COX‐2 (setting [1]) and at human recombinant COX‐1 (setting [2]) was 40 to 50% throughout. In addition, the “COX‐2 IC50, µM or Inhibition, %” value at human recombinant COX‐2 (cell carries superscript 100 μM (highest tested concentration)) amounted to 58 ± 3 µM ^100 μM.
As for `COc1ccc(/C=C/C(=O)c2c(OC)cc(OC)c(C(=O)/C=C/c3ccc(OC)c(OC)c3)c2OC)cc1OC` [Compound 10, (2E,2′E)−1,1′‐(2,4,6‐Trimethoxy‐1,3‐phenylene)bis[3‐(3,4‐dimethoxyphenyl)prop‐2‐en‐1‐one]], the inhibition at 100 µM at human recombinant COX‐2 (setting [1]) and at human recombinant COX‐1 (setting [2]) was less than 30% each time.
In the case of `COc1ccc(/C=C/C(=O)c2c(O)cc(O)c(C(=O)/C=C/c3ccc(OC)cc3)c2O)cc1` [Compound 27, (2E,2′E)−1,1′‐(2,4,6‐Trihydroxy‐1,3‐phenylene)bis[3‐(4‐methoxyphenyl)prop‐2‐en‐1‐one]], the “Selectivity index (SI)” value at human recombinant COX‐2 (SI = IC50 COX‐1 / IC50 COX‐2) came out at 1.2. Also, the concentration for half-maximal inhibition (IC50) on human recombinant COX‐2 (mean ± SEM) came out at 44 ± 3 µM; at human recombinant COX‐1, 48 ± 2 µM.
As for `COc1ccc(/C=C/C(=O)c2c(O)cc(O)c(C(=O)/C=C/c3ccc(OC)c(OC)c3)c2O)cc1OC` [Compound 26, (2E,2′E)−1,1′‐(2,4,6‐Trihydroxy‐1,3‐phenylene)bis[3‐(3,4‐dimethoxyphenyl)prop‐2‐en‐1‐one]], on human recombinant COX‐2 (setting [3]), the “Selectivity index (SI)” value turned out to be 0.8. Besides, the inhibition at 100 µM on human recombinant COX‐2 (setting [1]) and on human recombinant COX‐1 (setting [2]) was 40 to 50% throughout.
Take `COc1cc(OC)c(C(=O)/C=C/c2cccc(Cl)c2)c(OC)c1C(=O)/C=C/c1cccc(Cl)c1` [Compound 15, (2E,2′E)−1,1′‐(2,4,6‐Trimethoxy‐1,3‐phenylene)bis[3‐(3‐chlorophenyl)prop‐2‐en‐1‐one]]: the inhibition at 100 µM on human recombinant COX‐2 (setting [1]) and on human recombinant COX‐1 (setting [2]) was less than 30% throughout.
For `COc1ccc(/C=C/C(=O)c2c(OC)cc(OC)c(C(=O)/C=C/c3ccc(OC)cc3)c2OC)cc1` [Compound 11, (2E,2′E)−1,1′‐(2,4,6‐Trimethoxy‐1,3‐phenylene)bis[3‐(4‐methoxyphenyl)prop‐2‐en‐1‐one]], the inhibition at 100 µM on human recombinant COX‐2 (setting [1]) and at human recombinant COX‐1 (setting [2]) was less than 30% each time.
Take “(2E,2′E)−1,1′‐{2,4,6‐Tris[(2‐methoxyethoxy)methoxy]−1,3‐phenylene}bis(3‐{3,4‐bis[(2‐methoxyethoxy)methoxy]phenyl}prop‐2‐en‐1‐one) [Compound 24]”: the “COX‐2 Inhibition, %” value at human recombinant COX‐2 (setting [1]) was less than 30% ^100 μM. In addition, the “COX‐1 Inhibition, %” value on human recombinant COX‐1 (setting [2]) is reported as less than 30% ^100 μM.
Take `Cc1c(Cl)cccc1Nc1ccccc1C(=O)O` [tolfenamic acid]: the IC50 in the assay on COX‐2 was 0.64 µM.
With `COc1cc(OC)c(C(=O)/C=C/c2ccc(O)cc2)c(OC)c1C(=O)/C=C/c1ccc(O)cc1` [Compound 12, (2E,2′E)−1,1′‐(2,4,6‐Trimethoxy‐1,3‐phenylene)bis[3‐(4‐hydroxyphenyl)prop‐2‐en‐1‐one]], the “Selectivity index (SI)” value at human recombinant COX‐2 (setting [3]) is recorded as 0.9. The inhibition at 100 µM at human recombinant COX‐2 (setting [1]) and at human recombinant COX‐1 (setting [2]) was roughly 50% each time.
On to `COCOc1cc(OCOC)c(C(=O)/C=C/c2ccc(Br)cc2)c(OCOC)c1C(=O)/C=C/c1ccc(Br)cc1` [Compound 22, (2E,2′E)−1,1′‐[2,4,6‐Tris(methoxymethoxy)−1,3‐phenylene]bis(3‐(4‐bromophenyl)prop‐2‐en‐1‐one)], for which the inhibition at 100 µM at human recombinant COX‐2 (setting [1]) and on human recombinant COX‐1 (setting [2]) was less than 30% throughout.
On to `COCOc1cc(OCOC)c(C(=O)/C=C/c2ccc(OC)c(OC)c2)c(OCOC)c1C(=O)/C=C/c1ccc(OC)c(OC)c1` [Compound 19, (2E,2′E)−1,1′‐[2,4,6‐Tris(methoxymethoxy)−1,3‐phenylene]bis[3‐(3,4‐dimethoxyphenyl)prop‐2‐en‐1‐one]], for which the inhibition at 100 µM at human recombinant COX‐2 (setting [1]) and at human recombinant COX‐1 (setting [2]) was less than 30% each time.
With `COc1cc(OC)c(C(=O)/C=C/c2ccc(Br)cc2)c(OC)c1C(=O)/C=C/c1ccc(Br)cc1` [Compound 14, (2E,2′E)−1,1′‐(2,4,6‐Trimethoxy‐1,3‐phenylene)bis[3‐(4‐bromophenyl)prop‐2‐en‐1‐one]], the inhibition at 100 µM at human recombinant COX‐2 (setting [1]) and on human recombinant COX‐1 (setting [2]) was less than 30% throughout.

The record behind these values is publication PMC13110330, “Design, Synthesis, and Evaluation of New Polyhydroxylated B is‐Chalcones as Potential COX‐2 Selective Inhibitors” (Chemmedchem, 2026).
